Data set [1] concerns Herpes Simplex Virus 2 (HSV-2). In words: Inhibition of HSV-2 growth in cultured cells. Format: cell-based. The conditions noted are these: lowest concentration at which 50% of the viruses are rendered noninfective.
Source text: Particularly preferred host cells are rabbit skin cells or Vero cells. […] Acyclovir, a known antiherpesviral agent (Douglas, R., Chapter 51 in Goodman and Gilman's the Pharmacological Basis of Therapeutics, 8th Ed., G. Gilman et al., eds., Pergamon Press, New York (1980)), was used as a positive control.
Data set [2] has as its system Leishmania donovani. Description: Effect on growth of L. donovani in serum-containing and serum-free medium. Format: cell-based. The settings on record: cell densities at 21 hr, in some cases 43 hr, 27° C.; for Lowest concentration with activity against L. Donovani: Growth: serum-containing M199 medium; for Lowest concentration with activity against L. Donovani: Growth (Serum Free Medium): serum-free REIII medium. On the procedure: For the purpose of determining the effect of the compounds on the growth of parasite in serum-containing and serum-free medium, the parasites were harvested from culture medium M199+5% FBS, washed twice in HBSS and resuspended in same at 1×10^8 /mL. Serum-containing M199 ans serum-free REIII media were filtered and sterilized prior to use. The washed cells were added to achieve an initial concentration of 1.66×10^6 cells/mL. Cell densities were determined by hemacytometry at 21 hr, and in some cases at 43 hr of incubation at 27° C.

A short description of data set [3]: Cell toxicity in the HSV-2 assay. From the text: (Davis, B., Chapter 55 in Microbiology, Including Immunology and Molecular Genetics, 3rd Ed., Harper & Row, Philadelphia (1980), p. 1064). Particularly preferred host cells are rabbit skin cells or Vero cells. (Grammer, S., et al., J. Immunol. 145:2249-2253 (1990); Gao, W., et al., J. Biol. Chem. 265:20172-20178 (1990)). […] (See, e.g., Groupe, V., et al., Proc. Soc. Exptl. Biol. Med. 78:354-358 (1951); Mitsuya, H., et al., Science 226:172-174 (1984)). Acyclovir, a known antiherpesviral agent (Douglas, R., Chapter 51 in Goodman and Gilman's the Pharmacological Basis of Therapeutics, 8th Ed., G. Gilman et al., eds., Pergamon Press, New York (1980)), was used as a positive control.

In data set [4] the test system is Leishmania donovani. Description: Lysis of L. donovani parasites. The class given is cell-based. The conditions noted are these: parasites 1x10^8 per mL in HBSS; examined at 4 hr and after overnight at 27° C.

Read-outs that look alike come from different tables or passages of the source.

Take Octadecanoyl Viscosin [Compound 4]: in data set [1], the “HSV-2 LD50” value was above 100 µg/mL.
For the compound `CCCCCCC[C@@H](O)CC(=O)N[C@@H](CC(C)C)C(=O)N[C@H](CCC(=O)O)C(N)=O` [Compound 7, D-3-Hydroxydecanoyl-L-Leu-D-Glu-Amide], in the data set with Leishmania donovani [2], the “Lowest concentration with activity against L. Donovani: Growth” value was “no effect” and the “Lowest concentration with activity against L. Donovani: Growth (Serum Free Medium)” value (shortened to “Lowest concentration … (Serum Free Medium)”) is given as “no effect”. For the same compound, in data set [3], the “Cell Toxicity” value was above 100 µg/mL. Moreover, the “Lowest concentration with activity against L. Donovani: Lysis” value (“Lowest concentration with activity … Lysis” below) in the data set with Leishmania donovani [4] is “no effect”. For the same compound, the “HSV-2 LD50” value in data set [1] was above 100 µg/mL.
Turning to Deshydroxy Viscosin [Compound 3], the “HSV-2 LD50” value in data set [1] lay within 19 to 28 µg/mL.
For the compound `CCCCCCC[C@@H](O)CC(=O)N[C@@H](CC(C)C)C(=O)N[C@H](CCC(=O)OCc1ccccc1)C(=O)Nc1ccc2c(c1)OCCOCCOCCOCCO2` [Compound 10, 15-[[N-[N-[D-3-Hydroxydecanoyl]-L-Leucyl]-O-(phenylmethyl)-D-glutamyl]amino]-2,3,5,6,8,9,11,12-octahydro-1,4,7,10,13-benzopentaoxacyclopentadecin], in the data set on Leishmania donovani [2], the “Lowest concentration with activity against L. Donovani: Growth” value was found to be 100 mg/mL and the “Lowest concentration … (Serum Free Medium)” value is 100 mg/mL. Besides, in data set [3], the “Cell Toxicity” value is above 100 µg/mL. The “Lowest concentration with activity … Lysis” value with Leishmania donovani [4] was found to be 30 mg/mL. Besides, the “HSV-2 LD50” value in data set [1] was above 100 µg/mL.
Consider `CC(=O)Nc1ccc2c(c1)OCCOCCOCCOCCO2` [Compound 16], for which the “Cell Toxicity” value in data set [3] was above 100 µg/mL. The “HSV-2 LD50” value in data set [1] is above 100 µg/mL.
As to `CCCCCCCCCCCCCCC(CCC(=O)OCc1ccccc1)C(=O)Nc1ccc2c(c1)OCCOCCOCCOCCO2` (stereo not shown) [Compound 14], in the data set on Leishmania donovani [2], the “Lowest concentration with activity against L. Donovani: Growth” value was 100 mg/mL and the “Lowest concentration … (Serum Free Medium)” value turned out to be 10 mg/mL. In data set [3], the “Cell Toxicity” value stood at 100 µg/mL. Besides, the “Lowest concentration with activity … Lysis” value with Leishmania donovani [4] was found to be 30 mg/mL. Besides, in data set [1], the “HSV-2 LD50” value was above 33 µg/mL.
As to `CCCCCCC[C@@H](O)CC(=O)N[C@@H](CC(C)C)C(=O)N[C@H](CCC(=O)O)C(=O)N[C@@H](C(=O)N[C@@H](C(=O)N[C@@H](CC(C)C)C(=O)N[C@H](CO)C(=O)N[C@@H](CC(C)C)C(=O)N[C@H](CO)C(=O)N[C@H](C(=O)O)[C@@H](C)CC)C(C)C)[C@@H](C)O` [Compound 5, Viscosic Acid], in data set [3] (host cells of the HSV-2 assay), the “Cell Toxicity” value is above 100 µg/mL.
With `CCCCCCCCCC(=O)N[C@@H](CC(C)C)C(=O)N[C@H](CCC(=O)OCc1ccccc1)C(=O)Nc1ccc2c(c1)OCCOCCOCCOCCO2` [Compound 12, 15-[[N-[N-[Decanoyl]-L-Leucyl]-O-(phenylmethyl)-D-glutamyl]amino]-2,3,5,6,8,9,11,12-octahydro-1,4,7,10,13-benzopentaoxacyclopentadecin], in the data set on Leishmania donovani [2], the “Lowest concentration with activity against L. Donovani: Growth” value is given as “no effect” and the “Lowest concentration … (Serum Free Medium)” value was “no effect”. Moreover, the “Cell Toxicity” value in data set [3] is 100 µg/mL. Besides, in the data set with Leishmania donovani [4], the “Lowest concentration with activity … Lysis” value came out at 100 mg/mL. The “HSV-2 LD50” value in data set [1] was above 50 µg/mL.
For the compound `Nc1nc2c(ncn2COCCO)c(=O)[nH]1` [Acyclovir, reference compound], the “HSV-2 LD50” value in data set [1] lay in the range of 0.6 to 1.5 µg/mL.
For the compound `CCCCCCC[C@@H](O)CC(=O)N[C@@H](CC(C)C)C(=O)N[C@H](CCC(=O)O)C(=O)Nc1ccc2c(c1)OCCOCCOCCOCCO2` [Compound 11, 15-[[N-[N-[D-3-Hydroxydecanoyl]-L-Leucyl]-D-glutamyl]amino]-2,3,5,6,8,9,11,12-octahydro-1,4,7,10,13-benzopentaoxacyclopentadecin], in the data set with Leishmania donovani [2], the “Lowest concentration with activity against L. Donovani: Growth” value is “no effect” and the “Lowest concentration … (Serum Free Medium)” value was “no effect”. Moreover, the “Cell Toxicity” value in data set [3] is above 100 µg/mL. Besides, the “Lowest concentration with activity … Lysis” value in the data set on Leishmania donovani [4] is recorded as “no effect”. The “HSV-2 LD50” value in data set [1] was above 100 µg/mL.
For the compound `CCCCCCCCCCCCCCCCCC(=O)c1ccc2c(c1)OCCOCCOCCOCCO2` [Compound 42, Octadecanoyl benzo-15-Crown-5-ether], the “Cell Toxicity” value in data set [3] is above 100 µg/mL. Further, the “HSV-2 LD50” value in data set [1] was above 100 µg/mL.
Take `CCCCCCCCCCCCCCC(CCC(=O)O)C(=O)Nc1ccc2c(c1)OCCOCCOCCOCCO2` (stereo not shown) [Compound 15]: in the data set on Leishmania donovani [2], the “Lowest concentration with activity against L. Donovani: Growth” value is 30 mg/mL and the “Lowest concentration … (Serum Free Medium)” value was determined as 10 mg/mL. Also, the “Cell Toxicity” value in data set [3] was 33 µg/mL. Besides, in the data set on Leishmania donovani [4], the “Lowest concentration with activity … Lysis” value stood at 30 mg/mL. Moreover, the “HSV-2 LD50” value in data set [1] turned out to be 11 µg/mL.
As for `CCCCCCCCCC(=O)N[C@@H](CC(C)C)C(=O)N[C@H](CCC(=O)O)C(=O)Nc1ccc2c(c1)OCCOCCOCCOCCO2` [Compound 13, 15-[[N-[N-[Decanoyl]-L-Leucyl]-D-glutamyl]amino]-2,3,5,6,8,9,11,12-octahydro-1,4,7,10,13-benzopentaoxacyclopentadecin], in the data set on Leishmania donovani [2], the “Lowest concentration with activity against L. Donovani: Growth” value is “no effect” and the “Lowest concentration … (Serum Free Medium)” value was “no effect”. Besides, the “Cell Toxicity” value in data set [3] was above 100 µg/mL. The “Lowest concentration with activity … Lysis” value in the data set on Leishmania donovani [4] is given as “no effect”. Besides, the “HSV-2 LD50” value in data set [1] is above 100 µg/mL.

(Values after US5965524A, “Analogs of viscosin and uses thereof” (Peptide Technologies Corporation, priority 1994, dated 1999).)
